This data set is described as follows: Measurement of dicamba volatility (humidome): dicamba concentration in air by LC-MS. It counts as physicochemical. The note with it: di- and tri-carboxylic acids tested in dicamba compositions. An excerpt: Humidomes obtained from Hummert International (Part Nos 14-3850-2 for humidomes and 11-3050-1 for 1020 flat tray) were modified by cutting a 2.2 cm diameter hole on one end approximately 5 cm from the top to allow for insertion of a glass air sampling tube (22 mm OD) containing a polyurethane foam (PUF) filter. The sampling tube was secured with a VITON o-ring on each side of the humidome wall. The air sampling tube external to the humidome was fitted with tubing that was connected to a vacuum manifold immediately prior to sampling. […] The flat tray bottom containing the dicamba formulation on soil was covered with the humidome lid and the lid was secured with clamps. The assembled humidomes were placed in a temperature and humidity controlled environment and connected to a vacuum manifold through the air sampling line. Air was drawn through the humidome and PUF at a rate of 2 liters per minute (LPM) for 24 hours at which point the air sampling was stopped. The humidomes were then removed from the controlled environment and the PUF filter was removed. The PUF filter was extracted with 20 mL of methanol and the solution was analyzed for dicamba concentration using LC-MS methods known in the art. […] Where glyphosate was added or was part of the formulation, glyphosate was present at a concentration of 2.4% a.e. or 2.0 lb/A a.e. Where 2,4-D was added or was part of the formulation, 2,4-D was present at 2.4% ae or 2.0 lb/A ae at 10 gallons per acre (GPA). The growth chambers were set at 35° C. and 40% relative humidity (RH). For each composition four separate humidome boxes were sprayed to have 4 replicate measurements for each formulation. Tables 3-1 to 3-12 below provide the mean concentration of dicamba in air for the tested formulations.
For the molecule `O=C(O)CCC(=O)O` [succinic acid], the “effect of the acid on dicamba volatility” value is “did not reduce dicamba volatility”.

Regarding `O=C(O)CC(O)C(=O)O` (stereo not shown) [malic acid], the “effect of the acid on dicamba volatility” value is on record as “did not reduce dicamba volatility”.

Turning to `O=C(O)C(=O)O` [oxalic acid], the “effect of the acid on dicamba volatility” value is “did not reduce dicamba volatility”. Regarding `O=C(O)CC(O)(CC(=O)O)C(=O)O` [citric acid], the “effect of the acid on dicamba volatility” value is reported as “did not reduce dicamba volatility”.
